# Results as given in patent US8858988B2, “Compositions comprising extracts of Boswellia, tea tree, aloe and lavender oil and methods of treating wounds, burns and skin injuries therewith” (CuraPhyte Technologies Inc., priority 2009, dated 2014).
# Marks after values point to notes of the source that are not given here.
# System: mouse cutaneous injury model
# Experiment: Wound healing in mouse cutaneous injury model
# Assay type: in vivo
# Details: TOP
# Description: Animal model: Groups of 8 ICR male mice weighing 22±2 g were used. Under ether anesthesia, the shoulder and back region of each animal was shaved. A sharp punch (ID 12 mm) was used to remove the skin including panniculus carnosus and adherent tissues. The wound area, traced onto clear plastic sheets on days 3, 5, 7, 9 and 11, were quantitated by use of an Image Analyzer (Life Science Resources VISTA, Version 30). Test compound and vehicle (20 μl, 1.5% carboxymethylcellulose in PBS) were applied topically immediately following injury and in single, two or three applications daily thereafter for a total of 10 consecutive days. The wound half-closure time (CT50) was determined and unpaired Student's t test was applied for comparison between treated and vehicle group at each measurement time point. Differences are considered statistical significance at P<0.05. CGS-21680 ((2-p-carboxyethyl)phenylamino-5′-N-carboxamidoadenosine) was used as a positive comparator. Test substance C-T-1001 (Ointment A: herbal active ingredients tea tree oil, boswellia resin, aloe vera gel and lavender oil) was evaluated for possible wound healing activity. The test substance was applied topically to the wound area once, twice, or three times daily for 10 consecutive days. Percent closure of the wound (%) was determined on days 3, 5, 7, 9 and 11 in order to generate the half closure time (CT50). One-way ANOVA followed by Dunnett's test was used to determine significant difference between the treated groups and vehicle control.
smiles,measurement,setting,value
CCNC(=O)[C@H]1O[C@@H](n2cnc3c(N)nc(NCCc4ccc(CCC(=O)O)cc4)nc32)[C@H](O)[C@@H]1O [CGS-21680],The Closure of Wound (%) Day 3,"10 μg/mouse × 10, Day 3, mean (X)",42.4* %
same,The Closure of Wound (%) Day 5,"10 μg/mouse × 10, Day 5, mean (X)",56.3* %
same,The Closure of Wound (%) Day 7,"10 μg/mouse × 10, Day 7, mean (X)",66.8* %
same,The Closure of Wound (%) Day 9,"10 μg/mouse × 10, Day 9, mean (X)",74.3* %
same,The Closure of Wound (%) Day 11,"10 μg/mouse × 10, Day 11, mean (X)",81.7* %
same,"CT50 (Days), wound half-closure time","10 μg/mouse × 10, mean (X)",5.5* Days
